Measured values from publication PMC6324650 (Molecular Pharmacology, 2019).

Columns and labels:
[1] = Hydrolysis and cyclization of active NHS ester in PBS; type: physicochemical; conditions: PBS (pH 8.2), ligand coupling conditions
NK1 receptor = conditions: 37°C; ref Garland et al., 1994; cited from earlier work

O=C(CCCC[C@@H]1SC[C@@H]2NC(=O)N[C@@H]21)NCCCOCCOCCOCCCn1cc(CNC(=O)[C@H](CCCCNC(=O)CCC(=O)ON2C(=O)CCC2=O)NC(=O)CCc2ccc(C3(C(F)(F)F)N=N3)cc2)nn1 [probe 1, 2,5-Dioxopyrrolidin-1-yl 4-oxo-4-(((S)-6-oxo-6-(((1-(15-oxo-19-((3aS,4S,6aR)-2-oxohexahydro-1H-thieno[3,4-d]imidazol-4-yl)-4,7,10-trioxa-14-azanonadecyl)-1H-1,2,3-triazol-4-yl)methyl)amino)-5-(3-(4-(3-(trifluoromethyl)-3H-diazirin-3-yl)phenyl)propanamido)hexyl)amino)butanoate]
hydrolysis and cyclization of the active NHS ester [1]: partial hydrolysis as well as intramolecular cyclization of the active NHS ester were inevitable

substance P [SP]
time to NK1 receptor internalization upon activation (NK1 receptor): 3 min
